Where “and” joins values, the source holds several entries; their conditions need not be identical. Equal values may be shown once.
How the values were obtained:
non-expressing oocytes [1] = assay: cells; type: cell-based, Xenopus laevis
From the text: (§1) The orientation of PfCRT in the parasite’s DV membrane, and also in the oocyte plasma membrane, is such that its N- and C-termini extend into the cytosol. The oocytes were suspended in a reaction buffer adjusted to pH 5.5 to mimic the pH of the DV lumen[1],[2]. In this scenario, the transport of a substrate via PfCRT from the acidic extracellular solution into the oocyte cytosol[15] is analogous to the parasite’s PfCRT-mediated efflux of a substrate from the acidic DV and into the cytosol. Unless specified otherwise, this is the direction in which substrate transport was measured in the oocyte assays.
(§2) Unless specified otherwise, the transport assays were conducted over 1.5 h at 27.5 °C and the reaction buffer was ND96 (96 mM NaCl, 2 mM KCl, 1 mM MgCl2, 1.8 mM CaCl2, 10 mM MES and 10 mM Tris-base) at pH 5.5.
(§3) Ten oocytes were washed twice with the relevant ND96 buffer. […] The assay was terminated by removing the reaction buffer and washing the oocytes with ice-cold ND96 buffer. The oocytes were lysed in 10% (w/v) sodium dodecyl sulfate (SDS) and the radioactivity accumulated within each oocyte was measured with a MicroBeta^2 microplate liquid scintillation analyser (PerkinElmer).
(§4) At least four independent experiments were performed (on different days and using oocytes from different frogs), and within each experiment measurements were made from ten oocytes per treatment.

PfCRT^3D7 [2] = target: T1, PfCRT^3D7 (Plasmodium falciparum, UniProt Q8IBZ9); assay: cell-based; type: cell-based
From the text: as §1, §2, §3, §4

non-expressing oocytes [3] = type: cell-based, Xenopus laevis
Experimental: as §2
The intracellular concentrations were calculated using previous estimates of the volume of stage V–VI oocytes (~400 nL[60]). […] The oocytes were injected with VF-6 suspended in 25 nL ND96 buffer adjusted to pH 5.0, 5.5, 6.0 or 7.0, which corresponded to the injection of 2.5–250 fmol of H^+. The Na^+-dependence of the trans-stimulatory effect of VF-6 was assessed by injecting the oocytes with VF-6 suspended in ND96 buffer (pH 5.5) or a Na^+-free version of this buffer (the Na^+ was replaced with choline).
as §4

PfCRT^3D7 [4] = target: T1, PfCRT^3D7; assay: cell-based; type: cell-based; remark: listed apart in the source
Summary of the method: (§5)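 Oocytes (ten per treatment, ≥4 independent frogs/days) were preloaded by injecting VF-6 in 25 nL ND96 at pH 5.0, 5.5, 6.0 or 7.0, or Na^+-free choline buffer, then uptake run 1.5 h, 27.5 °C, ND96 pH 5.5 by default. Internal concentrations assumed ~400 nL oocyte volume.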

PfNT1 = target: T2, PfNT1 (Plasmodium falciparum, UniProt Q8IDM6); assay: cell-based; type: cell-based
T2 construct: expressed in transfected cells; host or cells: Xenopus laevis oocytes (stage V-VI), cRNA-injected
Summary of the method: as §5

T2 sequence (Q8IDM6 whole entry): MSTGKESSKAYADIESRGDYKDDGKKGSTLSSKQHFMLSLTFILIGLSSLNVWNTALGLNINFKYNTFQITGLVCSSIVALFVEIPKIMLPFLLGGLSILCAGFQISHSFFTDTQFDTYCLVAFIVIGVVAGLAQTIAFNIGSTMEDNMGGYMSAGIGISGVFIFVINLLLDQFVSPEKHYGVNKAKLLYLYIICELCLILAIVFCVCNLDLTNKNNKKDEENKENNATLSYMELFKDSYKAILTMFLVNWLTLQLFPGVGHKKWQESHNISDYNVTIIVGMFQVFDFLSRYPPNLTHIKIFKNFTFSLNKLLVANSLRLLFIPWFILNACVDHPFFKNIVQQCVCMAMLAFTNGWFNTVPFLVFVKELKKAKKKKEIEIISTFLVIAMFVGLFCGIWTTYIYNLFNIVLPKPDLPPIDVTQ
T1 sequence (Q8IBZ9 59-398): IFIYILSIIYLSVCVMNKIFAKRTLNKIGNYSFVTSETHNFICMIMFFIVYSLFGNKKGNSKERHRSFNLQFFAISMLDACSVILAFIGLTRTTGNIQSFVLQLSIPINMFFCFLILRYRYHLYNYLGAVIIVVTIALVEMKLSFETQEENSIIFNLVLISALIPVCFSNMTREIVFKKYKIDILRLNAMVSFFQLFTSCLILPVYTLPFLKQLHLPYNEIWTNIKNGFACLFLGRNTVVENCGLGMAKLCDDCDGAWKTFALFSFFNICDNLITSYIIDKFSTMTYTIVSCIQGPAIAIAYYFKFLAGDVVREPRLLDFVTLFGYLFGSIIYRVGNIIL

SMILES	Cis-inhibition data: total [3H]CQ transport, normalised to the oocyte type control (non-expressing oocytes [1])	Total [3H]CQ transport, cis-inhibition by solute (non-expressing oocytes [1])	Cis-inhibition data: total [3H]CQ transport, normalised to the oocyte type control (PfCRT^3D7 [2])	Total [3H]CQ transport, cis-inhibition by solute (PfCRT^3D7 [2])	Total [3H]CQ transport, trans-stimulation by injected solute (non-expressing oocytes [3])	Trans-stimulation data: total [3H]CQ transport, normalised to the oocyte type control (non-expressing oocytes [3])	PfCRT-mediated [3H]CQ transport, trans-stimulation by injected solute, PfCRT3D7 (PfCRT^3D7 [4])	Total [3H]CQ transport, trans-stimulation by injected solute (PfCRT^3D7 [4])	Trans-stimulation data: PfCRT-mediated [3H]CQ transport (PfCRT^3D7 [4])	Trans-stimulation data: total [3H]CQ transport, normalised to the oocyte type control (PfCRT^3D7 [4])	Total [3H]CQ transport, trans-stimulation by injected solute (PfNT1)	Trans-stimulation data: total [3H]CQ transport, normalised to the oocyte type control (PfNT1)	Cis-inhibition data: total [3H]CQ transport in the presence of the solute (non-expressing oocytes [1])	Cis-inhibition data: total [3H]CQ transport in the presence of the solute (PfCRT^3D7 [2])	Total [3H]CQ transport, trans-stimulation by solute (non-expressing oocytes [3])	Trans-stimulation data: total [3H]CQ transport with the solute injected (non-expressing oocytes [3])	Total [3H]CQ transport, trans-stimulation by solute (PfCRT^3D7 [4])	Trans-stimulation data: total [3H]CQ transport with the solute injected (PfCRT^3D7 [4])	Total [3H]CQ transport, trans-stimulation by solute (PfNT1)	Trans-stimulation data: total [3H]CQ transport with the solute injected (PfNT1)
O=C(O)CCC(=O)O [Succinate]	101 ± 4.7 and 101 ± 5.3 and 100 ± 5.3	2.4 ± 0.06 and 2.8 ± 0.03 and 2.2 ± 0.06	100 ± 9.7 and 100 ± 3.8 and 99 ± 3.7	4.2 ± 0.03 and 3.6 ± 0.06 and 3.9 ± 0.1	3.1 ± 0.03 and 2.2 ± 0.05	100 ± 3.7 and 99 ± 3.3	0.8 ± 0.04 and 0.6 ± 0.02	3.8 ± 0.1 and 3.6 ± 0.03	99 ± 3.9 and 96 ± 4.0	101 ± 2.7 and 98 ± 3.7	2.6 ± 0.04 and 3.3 ± 0.08	101 ± 3.7 and 98 ± 3.0								
CC[N+](CC)(CC)CC [Tetraethyl ammonium]		2.2 ± 0.03 and 3.3 ± 0.08 and 2.8 ± 0.03		2.7 ± 0.06 and 3.2 ± 0.08 and 3.7 ± 0.02			0.6 ± 0.02 and 0.7 ± 0.01		97 ± 2.2 and 99 ± 2.6				99 ± 4.8 and 101 ± 4.7 and 99 ± 3.6	98 ± 5.7 and 101 ± 5.2 and 98 ± 5.2	2.5 ± 0.04 and 3.0 ± 0.04	99 ± 3.5 and 98 ± 5.7	3.6 ± 0.05 and 3.7 ± 0.05	99 ± 0.3 and 101 ± 3.7	3.2 ± 0.1 and 2.8 ± 0.02	99 ± 3.5 and 100 ± 3.6
Cc1ncc(C[n+]2csc(CCO)c2C)c(N)n1 [Thiamine (Vitamin B1)]	99 ± 5.1 and 98 ± 5.2 and 100 ± 4.6	2.7 ± 0.05 and 4.2 ± 0.03 and 2.2 ± 0.06	99 ± 9.3 and 99 ± 3.7 and 99 ± 3.0	2.8 ± 0.03 and 2.7 ± 0.07 and 2.8 ± 0.05	2.9 ± 0.04 and 3.9 ± 0.05	100 ± 3.7 and 99 ± 4.8	0.1 ± 0.01	3.0 ± 0.05 and 3.0 ± 0.03	99 ± 2.9 and 98 ± 1.9	101 ± 3.5 and 100 ± 3.6	3.7 ± 0.08 and 2.7 ± 0.06	101 ± 3.9								
